Test results taken from patent EP0811621A2, “Carbamoyl substituted oxazoles as thromboxane receptor antagonists” (ELI LILLY AND COMPANY, priority 1996, dated 1997).

Columns and labels:
[1] = tested on: TXA2/PGH2 receptor-induced human platelet aggregation; assay: Platelet Aggregation Studies (U46619-induced aggregation in platelet-rich plasma); type: cell-based; conditions: read-out: IC50, concentration of test compound required to inhibit U46619-induced platelet aggregation by 50%, U46619 (1 micromolar), 1 min preincubation at 37 °C
Protocol: (§1) Measurement of Thromboxane Receptor Antagonism:
(§2) • 1. Receptor Binding Assay. Membranes from outdated human platelets were prepared as previously described (Mais, D. E., et al., Eur. J. Pharmacol. (1992), 227, 267-274). Incubations (220 µL) containing 10 µg of platelet membranes were performed in siliconized glass tubes (12 x 75 mm) at 30 °C for 30 min. The incubation media consisted of 10 mM Hepes, 2 mM CHAPS, 10 µM Indomethacin (pH = 7.4), ∼0.05 nM (∼25000 cpm) of [^125I]IBOP per tube, and varying concentrations of competing ligands ranging from 10^-10 to 10^-5 M. The reaction was terminated by addition of 4 mL of ice cold buffer (25 mM Tris) at pH 7.4, followed by rapid filtration through Whatman GF/C glass filters pre-soaked in 0.3% polyethyleneamine (Whatman, Inc., Clifton, NJ) using a Brandel M-24 cell harvester (Gaithersburg, MD). Non-specific binding was defined as that amount of radioactivity bound in the presence of a large molar excess (10 µM) of SQ29548, a potent TXA2/PGH2 receptor antagonist. The binding in this assay is defined in terms of the dissociation constant Kd. […] Platelet Aggregation Studies. The ability of a test compound to antagonize TXA2/PGH2 receptor-induced human platelet aggregation was studied in the following manner. Blood was collected from volunteers who denied taking any medication known to influence platelet aggregation within the previous 10 days. […] Platelet-rich plasma was prepared by centrifugation at 100 x g for 12 min, and platelet-poor plasma was prepared by centrifugation at 12,000 x g for 2 min. Receptor activation and subsequent platelet aggregation was induced by the addition of the stable analog of TXA2/PGH2, U46619 (1 micromolar). Aggregation was monitored in a Biodata PAP4 platelet aggregation profiler for 3 min after the addition of U46619. Test compound or vehicle was preincubated with platelet-rich plasma for 1 min at 37 °C prior to the induction of aggregation with U46619.

thromboxane synthase = biological target: T1, thromboxane synthase (Homo sapiens, UniProt P24557); assay: Thromboxane synthase inhibition in vitro (whole human blood, serum TXB2 by radioimmunoassay); type: cell-based; conditions: 30 min at 37 °C
T1 construct: from tissue; host or cells: whole human blood
T1 sequence (P24557 1-533): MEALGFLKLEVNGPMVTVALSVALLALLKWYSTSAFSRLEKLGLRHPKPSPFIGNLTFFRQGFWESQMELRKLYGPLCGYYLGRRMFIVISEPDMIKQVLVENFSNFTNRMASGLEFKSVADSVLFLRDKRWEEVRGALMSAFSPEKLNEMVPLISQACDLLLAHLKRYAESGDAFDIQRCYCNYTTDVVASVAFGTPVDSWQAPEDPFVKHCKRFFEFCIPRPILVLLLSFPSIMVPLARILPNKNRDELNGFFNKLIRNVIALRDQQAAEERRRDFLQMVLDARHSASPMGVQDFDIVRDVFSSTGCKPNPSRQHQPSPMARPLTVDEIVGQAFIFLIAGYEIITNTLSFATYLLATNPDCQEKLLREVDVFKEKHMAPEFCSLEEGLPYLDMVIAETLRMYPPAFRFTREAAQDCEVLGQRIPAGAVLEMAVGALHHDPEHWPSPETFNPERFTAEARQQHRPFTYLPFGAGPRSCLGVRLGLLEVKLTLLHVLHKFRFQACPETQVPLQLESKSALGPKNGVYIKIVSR
Protocol: Measurement of Thromboxane Synthase Inhibition and Prostacyclin Formation:
(§3) • 1. In vitro Experiments. The ability of a test compound to inhibit thromboxane synthase, as well as to change the amount of prostacyclin formed, were measured using published methods. […] Serum TXB2 and 6-keto-PGF1a, the stable metabolites of TXA2 and prostacyclin (PGI2), respectively, were measured by radioimmunoassay as described (Jakubowski, J.A., et al., Arteriosclerosis, (1987), 7, 599-604). The ability of a test compound to inhibit thromboxane synthase is expressed in the form of its IC50. […] Sprague Dawley rats (300 g males) were dosed by oral gavage with either vehicle (5% acacia) or 1-10 mg/kg test compound. Blood samples were collected 1 h after dosing. Animals were anesthetized (sodium pentobarbitol, 87 mg/kg i.p.) 15 min before sample collection. Blood samples were obtained by cardiac puncture via a butterfly catheter and the first mL of blood was discarded. Blood samples were divided into duplicates and incubated at 37 °C for 1 h in 13x100 mm glass tubes. Serum was separated by centrifugation at 2000 x g for 15 min at 25 °C, transferred to polypropylene tubes, and stored at -20 °C for subsequent assay using the methods referenced above.

TXA2/PGH2 receptor = biological target: T2, TXA2/PGH2 receptor (Homo sapiens, UniProt P21731); assay: Receptor Binding Assay ([125I]IBOP, platelet membranes); conditions: 30 °C for 30 min
T2 construct: Membranes from outdated human platelets were prepared as previously described; from tissue; host or cells: human platelets (membranes)
T2 sequence (P21731 1-343): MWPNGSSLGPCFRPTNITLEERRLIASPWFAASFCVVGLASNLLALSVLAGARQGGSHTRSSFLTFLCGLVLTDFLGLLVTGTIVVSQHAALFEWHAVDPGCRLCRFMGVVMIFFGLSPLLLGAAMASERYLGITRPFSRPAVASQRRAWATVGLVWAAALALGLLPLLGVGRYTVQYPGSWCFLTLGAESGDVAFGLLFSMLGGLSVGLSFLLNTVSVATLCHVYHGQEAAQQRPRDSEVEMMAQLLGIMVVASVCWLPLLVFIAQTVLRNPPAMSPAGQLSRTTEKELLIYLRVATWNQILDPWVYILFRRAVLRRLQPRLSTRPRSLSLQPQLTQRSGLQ
Protocol: as §1, §2

pithed rats = assay: Absence of Agonist Activity (pressor response after i.v. administration); type: in vivo
TXA2 formation = assay: Ex vivo inhibition of TXA2 formation following oral administration; type: in vivo; conditions: Rattus norvegicus, 1 h, Sprague Dawley rats, oral gavage, one hour after dosing
Protocol: as §3

| Structure (SMILES) | IC50 [1] [nM] | IC50 (thromboxane synthase) [nM] | Kd (TXA2/PGH2 receptor) [nM] | further results |
| --- | --- | --- | --- | --- |
| O=C(O)CCCC/C=C(\c1ccc(-c2nc(C(=O)N[C@@H]3C[C@H]3c3ccccc3)co2)cc1)c1cccnc1 (single isomer, unassigned) [Example 19, (+)-(E)-7-[4-[4-[[(2-(trans)Phenylcyclopropyl)amino]carbonyl]-2-oxazolyl]phenyl]-7-(3-pyridyl)hept-6-enoic Acid] | 5000 | – | – | – |
| O=C(O)CCCC/C=C(\c1ccc(C2=N[C@H](C(=O)NCCCCC3CCCCC3)CO2)cc1)c1cccnc1 [Example 1, (4S)-(E)-7-[4-[4-[[(4-Cyclohexylbutyl)amino]carbonyl]-4,5-dihydro-2-oxazolyl]phenyl]-7-(3-pyridyl)hept-6-enoic Acid] | – | 82.1 | – | – |
| O=C(O)CCCC/C=C(\c1ccc(-c2nc(C(=O)NCCCCC3CCCCC3)co2)cc1)c1cccnc1 [Example 2, (E)-7-[4-[4-[[(4-Cyclohexylbutyl)amino]carbonyl]-2-oxazolyl]phenyl]-7-(3-pyridyl)hept-6-enoic Acid] | 400 | 55 | 9.9 | pressor response (TXA2 agonist activity) (pithed rats; pithed rats, i.v., doses up to 10 mg/kg): absence of a pressor response; inhibition at 3 mg/kg (TXA2 formation): > 95% |
| O=C(O)CCCC/C=C(/c1ccc(C2=N[C@H](C(=O)NCCCCC3CCCCC3)CO2)cc1)c1cccnc1 [Example 3, (4S)-(Z)-7-[4-[4-[[(4-Cyclohexylbutyl)amino]carbonyl]-4,5-dihydro-2-oxazolyl]phenyl]-7-(3-pyridyl)hept-6-enoic Acid] | – | > 10000 | – | – |
| O=C(O)CCCC/C=C(/c1ccc(-c2nc(C(=O)NCCCCC3CCCCC3)co2)cc1)c1cccnc1 [Example 4, (Z)-7-[4-[4-[[(4-Cyclohexylbutyl)amino]carbonyl]-2-oxazolyl]phenyl]-7-(3-pyridyl)hept-6-enoic Acid] | – | > 10000 | – | – |
| CC(OCCCNC(=O)c1coc(-c2ccc(/C(=C\CCCCC(=O)O)c3cccnc3)cc2)n1)C1CCCCC1 (centres unmarked) [Example 26, (E)-7-[4-[4-[[[3-(1-Cyclohexylethoxy)propyl]amino]carbonyl)-2-oxazolyl]phenyl]-7-(3-pyridyl)hept-6-enoic Acid] | 5000 | 11.5 | 58.2 | – |
| O=C(O)CCCC/C=C(\c1ccc(-c2nc(C(=O)NCCCN3CCOCC3)co2)cc1)c1cccnc1 [Example 27, (E)-7-[4-[4-[[(3-Morpholinopropyl)amino]carbonyl]-2-oxazolyl]phenyl]-7-(3-pyridyl)hept-6-enoic Acid] | – | – | > 10000 | – |
| O=C(O)CCCC/C=C(\c1ccc(-c2nc(C(=O)NCCCCOc3ccccc3)co2)cc1)c1cccnc1 [Example 30, (E)-7-[4-[4-[[(4-Phenoxybutyl)amino]carbonyl]-2-oxazolyl]phenyl]-7-(3-pyridyl)hept-6-enoic Acid] | 500 | 48.9 | 52.2 | – |
| O=C(O)CCC/C=C\C[C@H]1[C@@H]2CC[C@@H](C2)[C@@H]1NS(=O)(=O)c1ccccc1 [Example S-145, reference compound] | – | – | – | mean arterial pressure (pithed rats; one minute after dosing at 0.1 mg/kg i.v.): transient, but significant, increase |
